Series [1] relates to Bean. Put plainly: Phytotoxicity Test, bean. As to conditions: 2500 ppm spray, ten days.
For series [2], the system named is Cotton. Briefly: Phytotoxicity Test, cotton. As to conditions: 2500 ppm spray, ten days.
Procedure: (§1) Experiments were also conducted to determine the phytotoxicity of representative compounds with respect to healthy fresh plants. […] The test plants were sprayed in accordance with the procedure described above for the Mite Foliage Spray Test so as to deliver approximately 100 milliliters of test solution to the leaves of each plant tested. The sprayed plants and controls were set aside for approximately one hour to allow the foliage to dry and were then placed in the greenhouse. After ten days the plants were visually inspected to determine the extent of foliage injury. A rating of 1 indicates no perceptible injury; 5 indicates the plant was dead and ratings of 2, 3 and 4 indicate intermediate degrees of injury based upon the number and extent to which leaves were injured.
Series [3] deals with Tom. Briefly: Phytotoxicity Test, tomato. As to conditions: 2500 ppm spray, ten days.
Procedure: as §1
The test system of series [4] is Soy. Put plainly: Phytotoxicity Test, soy. The conditions noted are these: 2500 ppm spray, ten days.
Procedure: as §1
In series [5] the test system is root-knot nematode, Meloidogyne incognita var. acrita. Put plainly: Nematocide Test. Note: key: 1: severe galling, equal to untreated plants; 2: moderate galling; 3: light galling; 4: very light galling; 5: no galling, perfect control. The series is classed as in vivo. As to conditions: 3.33 m.g. per jar; cucumber, approximately 3 weeks. As to the method:
The test organism used was the infective migratory larvae of the root-knot nematode, Meloidogyne incognita var. acrita, reared in the greenhouse on roots of cucumber plants. Infected plants were removed from the culture, and the roots are chopped very finely. A small amount of this inoculum was added to a pint jar containing approximately 180 cc. of soil. The jars were capped and incubated for one week at room temperature. During this period eggs of the nematode were hatched, and the larval forms migrated into the soil.
Ten ml. of the test formulation were added to each of the two jars for each dosage tested. Following the addition of chemical, the jars were capped, and the contents thoroughly mixed on a ball mill for 5 minutes.
The test compounds were formulated by a standard procedure of solution in acetone addition of an emulsifier, and dilution with water. Primary screening tests were conducted at 3.33 m.g. of the test compound per jar.
The jars were left capped at room temperature for a period of 48 hours, and the contents then transferred to 3 inch pots. Subsequently, the pots were seeded to cucumber as an indicator crop and placed in the greenhouse where they were cared for in the normal fashion for approximately 3 weeks.
The cucumber plants were then taken from the pots, the soil removed from the roots; and the amount of galling visually rated.
In the test for activity against nematodes (nem) activity was rated as follows: […]

Series [6] has as its system Corn. Briefly: Phytotoxicity Test, corn. The conditions noted are these: 2500 ppm spray, ten days.
Procedure: as §1

SMILES strings stand for the structures.

On to `C#CCOC(=O)N(C)SN(C)C(=O)ON=C1SC(C)(C)C(=O)N1C` [IV, N-[N-methyl-N-propargyloxycarbonylamino]N-[3,5,5-trimethylthiazolidin-4-one-2 O-(N-methylcarbamoyl)oxime]sulfide], for which the “Phytotoxicity: Bean” value in series [1] amounted to 1. In addition, in series [2], the “Phytotoxicity: Cotton” value worked out at 2. For the same compound, the “Phytotoxicity: Tom” value in series [3] is 2. In addition, the “Phytotoxicity: Soy” value in series [4] came out at 2. The “Biological Activity: Nem (nematode, galling rating)” value (from here on “Biological Activity: Nem”) in series [5] was found to be 1. The “Phytotoxicity: Corn” value in series [6] worked out at 1.
On to `CCC(C)c1cc([N+](=O)[O-])cc([N+](=O)[O-])c1OC(=O)N(C)SN(C)C(=O)ON=C(C)SC` (stereo not shown) [XIX, N-[1-Methylthioacetaldehyde O-(N-methylcarbamoyl)oxime]N-[2,4-dinitro-6-sec-butylphenyl-(N-methylcarbamoyloxy)]sulfide], for which, in series [1], the “Phytotoxicity: Bean” value is recorded as 1. Further, the “Phytotoxicity: Cotton” value in series [2] was found to be 2. The “Phytotoxicity: Tom” value in series [3] was determined as 2. Further, the “Phytotoxicity: Soy” value in series [4] was determined as 2. Besides, in series [5], the “Biological Activity: Nem” value amounted to 1. Also, the “Phytotoxicity: Corn” value in series [6] came to 2.
Turning to `CSC(C)=NOC(=O)N(C)SN(C)C(=O)ON=C(C)C(=O)c1ccccc1` [XLI], the “Phytotoxicity: Bean” value in series [1] is recorded as 1. Besides, in series [2], the “Phytotoxicity: Cotton” value was 1. Also, the “Phytotoxicity: Tom” value in series [3] turned out to be 1. For the same compound, the “Phytotoxicity: Soy” value in series [4] worked out at 1. Further, in series [5], the “Biological Activity: Nem” value turned out to be 1. Also, the “Phytotoxicity: Corn” value in series [6] stood at 1.
For `CSC(C)=NOC(=O)N(C)SN(C)C(=O)ON=C1SCSCS1` [XL], in series [1], the “Phytotoxicity: Bean” value came to 1. For the same compound, in series [2], the “Phytotoxicity: Cotton” value is on record as 1. The “Phytotoxicity: Tom” value in series [3] worked out at 1. The “Phytotoxicity: Soy” value in series [4] is 1. For the same compound, the “Biological Activity: Nem” value in series [5] is 5. Besides, in series [6], the “Phytotoxicity: Corn” value stood at 1.
Take `CSC(C)=NOC(=O)N(C)SN(C)C(=O)Oc1cccc(N(C)C)c1` [XX, N-[1-Methylthioacetaldehyde O-(N-methylcarbamoyl)oxime]N-[3-(N',N'-dimethylamino)phenyl-(N-methylcarbamoyloxy)]sulfide]: the “Phytotoxicity: Bean” value in series [1] is 1. The “Phytotoxicity: Cotton” value in series [2] is 2. In series [3], the “Phytotoxicity: Tom” value was found to be 1. Besides, the “Phytotoxicity: Soy” value in series [4] was found to be 2. In addition, the “Biological Activity: Nem” value in series [5] was determined as 4. The “Phytotoxicity: Corn” value in series [6] turned out to be 1.
For `CSC(C)=NOC(=O)N(C)SN(C)C(=O)Oc1ccc(NC=O)c(C)c1` [XXI, N-[1-Methylthioacetaldehyde O-(N-methylcarbamoyl)oxime]N-[4-formylamino-3-methylphenyl-(N-methylcarbamoyloxy)]sulfide], the “Phytotoxicity: Bean” value in series [1] was determined as 1. Also, the “Phytotoxicity: Cotton” value in series [2] came to 1. In addition, the “Phytotoxicity: Tom” value in series [3] worked out at 1. Also, the “Phytotoxicity: Soy” value in series [4] turned out to be 1. Moreover, the “Biological Activity: Nem” value in series [5] is given as 4. Also, the “Phytotoxicity: Corn” value in series [6] was found to be 1.
With `CSC(C)=NOC(=O)N(C)SN(C)C(=O)Oc1ccc(C(C)(C)C)cc1Cl` [XXIX], the “Phytotoxicity: Bean” value in series [1] is 1. Besides, the “Phytotoxicity: Cotton” value in series [2] is given as 1. Besides, in series [3], the “Phytotoxicity: Tom” value is given as 1. In series [4], the “Phytotoxicity: Soy” value was 1. The “Biological Activity: Nem” value in series [5] amounted to 5. Moreover, the “Phytotoxicity: Corn” value in series [6] was 1.
Turning to `CC(C)c1ccc(OC(=O)N(C)SN(C)C(=O)ON=C2CSCCS2)cc1` [XXV, N-[2-O-(N-methylcarbamoyl)oximino-1,4-dithiane]N-[4-isopropyl-(N-methylcarbamoyloxy)benzene]sulfide], in series [1], the “Phytotoxicity: Bean” value amounted to 1. The “Phytotoxicity: Cotton” value in series [2] worked out at 3. Besides, the “Phytotoxicity: Tom” value in series [3] came to 1. Moreover, the “Phytotoxicity: Soy” value in series [4] worked out at 1. Also, in series [6], the “Phytotoxicity: Corn” value stood at 1.
Take `CSC(C)=NOC(=O)N(C)SN(C)C(=O)Oc1cccc(Oc2ccccc2)c1` [XXXV]: the “Phytotoxicity: Bean” value in series [1] stood at 1. For the same compound, in series [2], the “Phytotoxicity: Cotton” value was found to be 1. For the same compound, in series [3], the “Phytotoxicity: Tom” value is 1. The “Phytotoxicity: Soy” value in series [4] was found to be 1. In series [6], the “Phytotoxicity: Corn” value amounted to 1.

Values taken from patent US4551472A, “Unsymmetrical bis-carbamate compounds” (priority 1984, dated 1985).
